Results: patent US11535856B2, “Stilbenoid prenyltransferases from plants” (Arkansas State University—Jonesboro, priority 2016, dated 2022)
Each block holds one molecule with its values, some of them ahead of it.

Key:
[1] = test system: peanut hairy root cultures; experiment: Inhibitor feeding experiment in elicited peanut hairy root cultures; format: cell-based, Arachis hypogaea
AhR4DT-1 = AhR4DT-1 (Arachis hypogaea, UniProt A0A2H4GDC8); experiment: AhR4DT-1 activity in microsomal fraction of N. benthamiana leaves; conditions: for activity as prenyl donor: 300 μM donor, 100 μM resveratrol as prenyl acceptor; for AhR4DT-1 activity relative to Mg^2+: 10 mM divalent cation or EDTA; for prenylation as prenyl acceptor: DMAPP as prenyl donor
AhR3′DT-1 = AhR3′DT-1 (Arachis hypogaea, UniProt A0A2H4GDD0); experiment: AhR3′DT-1 activity in microsomal fraction of N. benthamiana leaves; conditions: for activity as prenyl donor: 300 μM donor, 100 μM resveratrol as prenyl acceptor; for AhR3′DT-1 activity relative to Mg^2+: 10 mM divalent cation or EDTA; for prenylation as prenyl acceptor: DMAPP as prenyl donor
[2] = test system: resveratrol prenyltransferase AhR4DT; experiment: Prenyltransferase assay with microsomal fraction of elicited peanut hairy roots; format: biochemical, Arachis hypogaea; conditions: for resveratrol prenyltransferase activity relative to Mg^2+: 10 mM divalent cation; for prenylation as prenyl acceptor: 100 μM acceptor, 300 μM DMAPP
resveratrol prenylation = experiment: Screening for stilbenoid prenylation activity, crude extract of infiltrated N. benthamiana leaves; format: biochemical, Arachis hypogaea; conditions: resveratrol and DMAPP as substrates
Method: The engineered A. tumefaciens was grown in 5 mL of YEP medium, containing 50 mg/L of kanamycin (Sigma-Aldrich) and 30 mg/L of streptomycin (Sigma-Aldrich) for antibiotic selection, at 28° C. on an orbital shaker at 200 rpm. After cultivation for 2 days, 5 mL of bacterial suspension was inoculated into 50 mL of fresh YEP medium containing the antibiotics and allowed to grow for one additional day under the same conditions. Bacteria were pelleted by centrifugation, resuspended in 500 mL of induction medium containing 10 mM MgCl2 with 1 mM acetosyringone and incubated for 4 h at 28° C. under 200 rpm orbital shaking until their OD600 reached to a range from 0.5 to 0.6. Before the infiltration, 0.005% of Tween-20, 0.005% of Triton 100 and 0.005% of Silwet L-77 were added to bacterial cultures to enhance the efficiency of transformation in N. benthamiana leaves. Agrobacterium-mediated vacuum infiltration was performed on 4-week-old N. benthamiana following the methodology described previously (Medrano et al., 2009).
After 48 hours of post-infiltration, the “middle tier” of N. benthamiana leaves were harvested for prenylation activity screening. Five grams of leaf tissue (fresh weight) were grounded and homogenized using a mortar with pestle in 10 mL of extraction buffer containing 100 mM Tris-HCl (pH 7.6) and 10 mM dithiothreitol (DTT). […] The total protein concentration was determined by coomassie protein assay (Thermo Scientific) using bovine serum albumin as standard.
The reaction of crude cell-free extract of N. benthamiana leaves infiltrated with A. tumefaciens harboring the empty pBIB-Kan vector was used as control.

[3] = 10 μM mevastatin, 72-h treatment
[4] = 100 clomazone with elicitors, 72 h

Chain of AhR4DT-1 (A0A2H4GDC8 entry or part of it): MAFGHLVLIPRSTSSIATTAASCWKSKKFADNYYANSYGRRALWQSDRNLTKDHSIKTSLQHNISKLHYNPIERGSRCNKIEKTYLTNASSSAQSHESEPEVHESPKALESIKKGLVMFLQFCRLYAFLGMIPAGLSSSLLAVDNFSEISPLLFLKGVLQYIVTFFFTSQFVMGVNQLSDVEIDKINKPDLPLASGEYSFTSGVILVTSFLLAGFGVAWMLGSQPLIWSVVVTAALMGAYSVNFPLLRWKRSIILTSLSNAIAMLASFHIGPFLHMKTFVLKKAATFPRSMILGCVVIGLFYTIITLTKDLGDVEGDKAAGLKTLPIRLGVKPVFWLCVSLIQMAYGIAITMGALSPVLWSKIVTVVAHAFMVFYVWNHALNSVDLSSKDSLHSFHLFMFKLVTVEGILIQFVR
Chain of AhR3′DT-1 (A0A2H4GDD0 entry or part of it): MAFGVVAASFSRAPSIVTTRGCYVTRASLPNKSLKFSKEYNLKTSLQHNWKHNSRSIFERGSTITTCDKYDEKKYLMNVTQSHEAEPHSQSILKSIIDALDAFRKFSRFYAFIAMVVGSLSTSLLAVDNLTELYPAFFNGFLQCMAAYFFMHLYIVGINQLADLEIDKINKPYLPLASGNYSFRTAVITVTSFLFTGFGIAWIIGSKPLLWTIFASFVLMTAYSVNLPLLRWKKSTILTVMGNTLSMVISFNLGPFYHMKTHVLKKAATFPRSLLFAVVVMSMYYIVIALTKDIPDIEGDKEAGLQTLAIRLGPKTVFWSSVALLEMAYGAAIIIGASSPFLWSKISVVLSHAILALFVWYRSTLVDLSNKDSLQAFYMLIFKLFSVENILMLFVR

Molecule: CC[C@H](C)C(=O)O[C@H]1CCC=C2C=C[C@H](C)[C@H](CC[C@@H]3C[C@@H](O)CC(=O)O3)[C@H]21 [mevastatin]
- yields of resveratrol, piceatannol and prenylated stilbenoids ([1]; 10 μM mevastatin with elicitors): no significant effect
- increase in yield of arachidin-1 [1, 3]: 41%
- increase in yield of arachidin-5 [1, 3]: 27%
- accumulation of arachidin-5, arachidin-1, arachidin-2 and arachidin-3 ([1]; 24-h interval between 48 and 72-h treatments): did not inhibit the accumulation
- levels of prenylated stilbenoids ([1]; mevastatin at 1, 10, or 100 μM with 100 μM MeJA and 9 g/L CD, preliminary experiments): did not affect the levels of prenylated stilbenoids

Molecule: CC(C)=CCC/C(C)=C/CC/C(C)=C/CC/C(C)=C/COP(=O)(O)OP(=O)(O)O [GGPP, geranylgeranyl pyrophosphate]
- activity as prenyl donor (AhR4DT-1): Neither AhR4DT-1 nor AhR3′DT-1 showed any detectable activity
- activity as prenyl donor (AhR3′DT-1): Neither AhR4DT-1 nor AhR3′DT-1 showed any detectable activity

Molecule: CC1(C)CON(Cc2ccccc2Cl)C1=O [clomazone]
- yields of prenylated stilbenoids compared to non-inhibitor group ([1]; 10 μM and 100 μM clomazone): significantly lower yields of prenylated stilbenoids
- yields of resveratrol compared to non-inhibitor group ([1]; 10 μM and 100 μM clomazone): significantly higher yields of resveratrol
- piceatannol produced ([1]; 100 μM clomazone): 9.02 µM
- resveratrol produced ([1]; 100 μM clomazone): 845.7 µM
- accumulation of arachidin-5 and arachidin-1 ([1]; 100 μM clomazone, 48-hour): almost completely inhibited
- piceatannol concentration ([1]; 100 μM clomazone, 72 h): increased only slightly
- yield of resveratrol [1, 4]: 830.73 ± 25.83 µM
- yield of resveratrol relative to non-inhibitor group [1, 4]: 6.3 fold
- effects on accumulation of resveratrol and inhibition of prenylated stilbenoids accumulation ([1]; clomazone 1 μM to 100 μM with elicitors): increased with the concentration of clomazone
- micromolar increase of resveratrol relative to overall decrease of arachidin-5, -1, -2 and -3 ([1]; clomazone with elicitors): about 1.54 fold
- levels of all prenylated stilbenoids ([1]; clomazone, 24-h interval between 48- and 72-h time points): no significant increases
- production of stilbenoids without elicitors ([1]; different concentrations of clomazone, no elicitors): none of these stilbenoids was detected

- Km ([2]; microsomal fraction of peanut hairy roots, 28° C., 60 min, read-out: apparent km): 91.9 ± 7.03 µM
- Vmax for AhR4DT-1 relative to AhR3′DT-1 (AhR4DT-1): 5.8 fold
Molecule: CC(C)=CCOP(=O)(O)OP(=O)(O)O [DMAPP, dimethylallyl pyrophosphate]

Molecule: [Fe+2] [Fe^2+]
- resveratrol prenyltransferase activity relative to Mg^2+ [2]: 14.6%
- AhR4DT-1 activity relative to Mg^2+ (AhR4DT-1): 6.4%
- AhR3′DT-1 activity relative to Mg^2+ (AhR3′DT-1): 34.8%

Molecule: [Mn+2] [Mn^2+]
- resveratrol prenyltransferase activity relative to Mg^2+ [2]: 71.8%
- AhR4DT-1 activity relative to Mg^2+ (AhR4DT-1): 83.9%
- efficiency relative to Mg^2+ (AhR3′DT-1): 2.1 fold
- AhR3′DT-1 activity relative to Mg^2+ (AhR3′DT-1): 210.3%

- Vmax for AhR4DT-1 relative to AhR3′DT-1 (AhR4DT-1): 6.9 fold
- prenylation as prenyl acceptor (AhR4DT-1): can selectively catalyze
Molecule: Oc1cc(O)cc(/C=C/c2ccc(O)c(O)c2)c1 [piceatannol, 3,5,3′,4′-tetrahydroxy-trans-stilbene]
- prenylation as prenyl acceptor [2]: catalyzed the synthesis of arachidin-5 as the predominant prenylated product
- prenylation as prenyl acceptor (AhR3′DT-1): prenylated products of piceatannol and prenylated oxyresveratrol were identified

Molecule: [Ca+2] [Ca^2+]
- resveratrol prenyltransferase activity relative to Mg^2+ [2]: 0.9%

Molecule: O=C1C[C@@H](c2ccc(O)cc2)Oc2cc(O)cc(O)c21 [naringenin]
- prenylation as prenyl acceptor (AhR4DT-1): neither prenylated flavanone, prenylated flavone, nor prenylated isoflavone was detected
- prenylation as prenyl acceptor (AhR3′DT-1): neither prenylated flavanone, prenylated flavone, nor prenylated isoflavone was detected

Molecule: Oc1cc(O)cc(/C=C/c2ccc(O)cc2O)c1 [oxyresveratrol]
- prenylation as prenyl acceptor [2]: an isoprene unit was also transferred to oxyresveratrol
- prenylation as prenyl acceptor (AhR4DT-1): can selectively catalyze
- prenylation as prenyl acceptor (AhR3′DT-1): prenylated products of piceatannol and prenylated oxyresveratrol were identified

Molecule: O=c1c(-c2ccc(O)cc2)coc2cc(O)cc(O)c12 [genistein]
- prenylation as prenyl acceptor (AhR4DT-1): neither prenylated flavanone, prenylated flavone, nor prenylated isoflavone was detected
- prenylation as prenyl acceptor (AhR3′DT-1): neither prenylated flavanone, prenylated flavone, nor prenylated isoflavone was detected

Molecule: CC(C)=CCC/C(C)=C/COP(=O)(O)OP(=O)(O)O [GPP, geranyl pyrophosphate]
- activity as prenyl donor (AhR4DT-1): Neither AhR4DT-1 nor AhR3′DT-1 showed any detectable activity
- activity as prenyl donor (AhR3′DT-1): Neither AhR4DT-1 nor AhR3′DT-1 showed any detectable activity

Molecule: [Mg+2] [Mg^2+]
- resveratrol prenyltransferase activity relative to Mg^2+ [2]: 100%
- AhR4DT-1 activity relative to Mg^2+ (AhR4DT-1): 100%
- AhR3′DT-1 activity relative to Mg^2+ (AhR3′DT-1): 100%

- AhR4DT-1 activity relative to Mg^2+ (AhR4DT-1): no activity was detected
- AhR3′DT-1 activity relative to Mg^2+ (AhR3′DT-1): no activity was detected
Molecule: O=C(O)CN(CCN(CC(=O)O)CC(=O)O)CC(=O)O [EDTA]

Molecule: CC(C)=CCC/C(C)=C/CC/C(C)=C/COP(=O)(O)OP(=O)(O)O [FPP, farnesyl pyrophosphate]
- activity as prenyl donor (AhR4DT-1): Neither AhR4DT-1 nor AhR3′DT-1 showed any detectable activity
- activity as prenyl donor (AhR3′DT-1): Neither AhR4DT-1 nor AhR3′DT-1 showed any detectable activity

Molecule: O=c1cc(-c2ccc(O)cc2)oc2cc(O)cc(O)c12 [apigenin]
- prenylation as prenyl acceptor (AhR4DT-1): neither prenylated flavanone, prenylated flavone, nor prenylated isoflavone was detected
- prenylation as prenyl acceptor (AhR3′DT-1): neither prenylated flavanone, prenylated flavone, nor prenylated isoflavone was detected

- prenylation as prenyl acceptor [2]: catalyzed pinosylvin into chiricanine A
- prenylation as prenyl acceptor (AhR4DT-1): can selectively catalyze
- prenylation as prenyl acceptor (AhR3′DT-1): no prenylated pinosylvin was produced
Molecule: Oc1cc(O)cc(/C=C/c2ccccc2)c1 [pinosylvin]

B1: AhR3′DT-3: stilbenoid prenyltransferase, GenBank KY565247 (protein, listed as Arachis hypogaea)
chain: MPFGLSASFLKSRSLHHHGWKFLKEREIHKQPLRNTRRALWNNNGKLSKEYCIKMQHNYWKNHCTNLKGGSMMSDDKFEKKYLVNATSKNSHDEPKKSQPILEFIKDGMDTFRQFSRLYAFFSFISSGLSSSLLAVDNLSNISPKMFLIGFLQFLIPNCIMFQYIVGVNQLADIEIDKINKPYLPLASGKYSLRNAIIIVASSLIMGFGSAWVLGSRPMFWCLVISTMLMTAYSVNLPLLRWKRSTILATLSLASSMTIGQHIAPFLHMKTVLKKALNYPRSLVFTVVVVSLFYTVISLAKDIPDIEGDKAAGHKTLAIHLGPRRVFWFCISLLQMTYGIAIIMGALSPILWSKIFTVVTHFIMSIILWYRANSVDLSNNDSLQSFYMAIFVFLSVENFLVLFVR
- activity level relative to AhR3′DT-1 (resveratrol prenylation): 17%

B2: AhR3′DT-4: stilbenoid prenyltransferase, GenBank KY565248 (protein, listed as Arachis hypogaea)
chain: MASTSRLLLHASLPPPTTSISKTNSGSHAVIRSIWHNNGKYPKEKTCIETPLLLQHNQKHHYTCDQIKRKHFVKATHAQSKNEPEPQADSAKPIWNSIKDVMHTIQKFSVFYALIGLLSGILSSSLLAVEKLSDLSPTFFISMLQFMAAYSSMQLYTTGVNQLADIEIDKINKPYRPLASSKISFGGGLAIVAASLFMSFGLALMIGSKPLLWGLILIFILMTAYSVNLPFLRWKKSTILTLLSGVPTILTAYNLAPYLHMKTFVLKKPFIFTRSLAFTTVVMTFFYVVISLFKDIPDIEGDKKEGLQTLSIRLGPKRVFWLCISLLEMTYGIAIIMGLTSPFLWSKIFTVMAHAINAWILWFRANSVDLKSKEDFQSFYMFIFKLLYLENVLVLFVR
- activity level relative to AhR3′DT-1 (resveratrol prenylation): 5%

B3: AhR3′DT-2: stilbenoid prenyltransferase, GenBank KY565246 (protein, listed as Arachis hypogaea)
chain: MPFGLSASFLKSRSFHHHGTRRALWNNNGKLSKEYCIKMQHNYWKNHCTNLKGGSMMSDDKFEKKYLVNATSKNSHDEPKKSQPILEFIKDGMDTFRQFSRLYAFFSFISSGLSSSLLAVDNLSNISPKMFLIGFLQFLIPNCIMFQYIVGVNQLADIEIDKINKPYLPLASGKYSLRNAIIIVASSLLMGFGSAWVLGSRPMFWCLVISTMLMTAYSVNLPLLRWKRSTILATLSLASSMTIGQHIAPFLHMKTVLKKALNYPRSLVFTVVVVSLFYTVISLAKDIPDIEGDKAAGHKTLAIHLGPRRVFWFCISLLQMTYGIAIIMGALSPILWSKIFTVVTHFIMSIILWYRANSVDLSNNDSLQSFYMAIFVFLSVENFLVLFVR
- activity level relative to AhR3′DT-1 (resveratrol prenylation): 18%
